Results as given in ChEMBL document CHEMBL1201862, “PubChem BioAssay data set” (2004).
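Each compound was tested at five concentrations against cells in 96-well plates for 48 hours. The concentration for 50% growth inhibition is given as GI50.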 Activity calls are given as the source filed them. No stated cut-off is given here; in the data, active = GI50 up to about 1.1 µM and inactive = higher.

What was measured:
Experiment in all cases: growth of human tumour cells (NCI), 48 h
786-0 = system: 786-0
COLO 205 = system: COLO 205
EKVX = system: EKVX
HCT-116 = system: HCT-116
HCT-15 = system: HCT-15
Hs-578T = system: Hs-578T
MDA-MB-231 = system: MDA-MB-231
MDA-MB-435 = system: MDA-MB-435
NCI-H226 = system: NCI-H226
NCI-H23 = system: NCI-H23
NCI-H522 = system: NCI-H522
OVCAR-8 = system: OVCAR-8
RPMI-8226 = system: RPMI-8226
SF-268 = system: SF-268
SK-MEL-2 = system: SK-MEL-2
SK-MEL-5 = system: SK-MEL-5
SK-OV-3 = system: SK-OV-3
SNB-19 = system: SNB-19
SW-620 = system: SW-620
UACC-62 = system: UACC-62

Structure (SMILES)	GI50 (786-0)	GI50 (COLO 205)	GI50 (EKVX)	GI50 (HCT-116)	GI50 (HCT-15)	GI50 (Hs-578T)	GI50 (MDA-MB-231)	GI50 (MDA-MB-435)	GI50 (NCI-H226)	GI50 (NCI-H23)	GI50 (NCI-H522)	GI50 (OVCAR-8)	GI50 (RPMI-8226)	GI50 (SF-268)	GI50 (SK-MEL-2)	GI50 (SK-MEL-5)	GI50 (SK-OV-3)	GI50 (SNB-19)	GI50 (SW-620)	GI50 (UACC-62)
COc1ccc(/N=N\c2c(N)nn3c(SC)c(C#N)c(N)nc23)cc1	3.67 µM (inactive)	12.9 µM (inactive)	3.93 µM (inactive)	7.74 µM (inactive)	8.61 µM	2.52 µM (inactive)	2.32 µM (inactive)	13.3 µM (inactive)	21.4 µM (inactive)	5.55 µM (inactive)	16.5 µM (inactive)	5.04 µM (inactive)	2.92 µM (inactive)	3.21 µM (inactive)	2.76 µM (inactive)	16.1 µM (inactive)	19.5 µM (inactive)	16.9 µM (inactive)	4.6 µM (inactive)	5.71 µM (inactive)
COc1ncnc2c(NC3OC(CO)C(O)C3O)ncnc12 (configuration not stated)	0.537 µM (active)	0.307 µM (active)	0.596 µM (active)	0.0541 µM (active)	0.179 µM	1.03 µM (active)	0.149 µM (active)	0.578 µM (active)	0.335 µM (active)	0.24 µM (active)	1.53 µM (inactive)	0.329 µM (active)	0.371 µM (active)	0.506 µM (active)	2.47 µM (inactive)	1.19 µM (inactive)	0.525 µM (active)	1.16 µM (inactive)	0.238 µM (active)	0.299 µM (active)
COC(=O)CCCC(=O)C1=NN(c2ccc(Cl)cc2)Cc2ccccc2N1	17.6 µM (inactive)	54 µM (inactive)	70.6 µM (inactive)	> 100 µM (inactive)	95.1 µM	68.4 µM (inactive)	> 100 µM (inactive)	> 100 µM (inactive)	51.4 µM (inactive)	> 100 µM (inactive)	54.7 µM (inactive)	56.4 µM (inactive)	> 100 µM (inactive)	> 100 µM (inactive)	> 100 µM (inactive)	> 100 µM (inactive)	> 100 µM (inactive)	> 100 µM (inactive)	> 100 µM (inactive)	27.3 µM (inactive)
COC(=O)c1nc2c3c(cccc3c1C(=O)OC)Nc1ccccc1-2	27.5 µM (inactive)	28.1 µM (inactive)	65.8 µM (inactive)	25.2 µM (inactive)	–	26.7 µM (inactive)	23.8 µM (inactive)	83.6 µM (inactive)	65.3 µM (inactive)	36 µM (inactive)	10.7 µM (inactive)	–	53 µM (inactive)	38.5 µM (inactive)	28.1 µM (inactive)	15.4 µM (inactive)	24 µM (inactive)	51.3 µM (inactive)	40.7 µM (inactive)	10.7 µM (inactive)
C[C@@H]1CC[C@@]2(OC1)O[C@H]1C[C@H]3[C@@H]4CC[C@H]5C[C@@H](OC6OC(CO)C(OC7OC(CO)C(O)C(OC8OCC(O)C(O)C8O)C7OC7OC(CO)C(O)C(O)C7O)C(O)C6O)[C@H](O)C[C@]5(C)[C@H]4CC[C@]3(C)[C@H]1[C@@H]2C (some centres not stated)	> 10 µM (inactive)	2.46 µM (inactive)	5.35 µM (inactive)	3.88 µM (inactive)	3.4 µM	5.75 µM (inactive)	1.76 µM (inactive)	13 µM (inactive)	6.47 µM (inactive)	2.11 µM (inactive)	0.426 µM (active)	2.97 µM (inactive)	1.85 µM (inactive)	7.71 µM (inactive)	9.08 µM (inactive)	9.84 µM (inactive)	10.8 µM (inactive)	10.1 µM (inactive)	4.19 µM (inactive)	20 µM (inactive)
O=[N+]([O-])c1cccc2nc3ccccc3c(NCCCNc3c4ccccc4nc4cccc([N+](=O)[O-])c34)c12	0.0146 µM (active)	0.0102 µM (active)	0.0312 µM (active)	0.0103 µM (active)	< 0.0138 µM	0.0162 µM (active)	< 0.0122 µM (active)	0.0167 µM (active)	0.0697 µM (active)	0.0182 µM (active)	0.0146 µM (active)	< 0.0139 µM (active)	< 0.01 µM (active)	< 0.01 µM (active)	0.035 µM (active)	0.0163 µM (active)	0.0982 µM (active)	0.0137 µM (active)	< 0.01 µM (active)	0.0513 µM (active)
C/C(Cl)=N\OC(=O)Nc1ccc([N+](=O)[O-])cc1	5.92 µM (inactive)	2.49 µM (inactive)	19.3 µM (inactive)	7.94 µM (inactive)	14.1 µM	25 µM (inactive)	18.7 µM (inactive)	18.8 µM (inactive)	> 100 µM (inactive)	21.5 µM (inactive)	1.99 µM (inactive)	15.1 µM (inactive)	2.36 µM (inactive)	21 µM (inactive)	17.5 µM (inactive)	17.4 µM (inactive)	13.3 µM (inactive)	17.5 µM (inactive)	2 µM (inactive)	22.2 µM (inactive)
CSc1cc(Cl)c(C)cc1S(=O)(=O)NC(=O)Nc1ccc(Cl)cc1	31.2 µM (inactive)	15.5 µM (inactive)	32.7 µM (inactive)	17.5 µM (inactive)	20.5 µM	51.8 µM (inactive)	29.5 µM (inactive)	38.4 µM (inactive)	22 µM (inactive)	18.4 µM (inactive)	20.4 µM (inactive)	35.6 µM (inactive)	30.9 µM (inactive)	35.9 µM (inactive)	25.8 µM (inactive)	22.2 µM (inactive)	38.7 µM (inactive)	30.5 µM (inactive)	33.7 µM (inactive)	0.48 µM (active)
O=C(Nc1ccc(S(=O)(=O)/N=c2\ncccn2C(=O)C(C(F)(F)F)C(F)(F)F)cc1)C(C(F)(F)F)C(F)(F)F	> 100 µM (inactive)	> 100 µM (inactive)	> 100 µM (inactive)	> 100 µM (inactive)	> 100 µM	> 100 µM (inactive)	> 100 µM (inactive)	> 100 µM (inactive)	> 100 µM (inactive)	> 100 µM (inactive)	> 100 µM (inactive)	> 100 µM (inactive)	> 100 µM (inactive)	> 100 µM (inactive)	> 100 µM (inactive)	> 100 µM (inactive)	> 100 µM (inactive)	> 100 µM (inactive)	–	> 100 µM (inactive)
COc1cc2nc(-c3cccs3)nc(Nc3ccccc3C(=O)NN)c2cc1OC	95.7 µM (inactive)	67.3 µM (inactive)	> 100 µM (inactive)	> 100 µM (inactive)	> 100 µM	> 100 µM (inactive)	> 100 µM (inactive)	95.7 µM (inactive)	> 100 µM (inactive)	> 100 µM (inactive)	> 100 µM (inactive)	> 100 µM (inactive)	> 100 µM (inactive)	> 100 µM (inactive)	> 100 µM (inactive)	> 100 µM (inactive)	> 100 µM (inactive)	> 100 µM (inactive)	> 100 µM (inactive)	> 100 µM (inactive)
